Experimental data as given in patent US20130203726A1, “FtsZ INHIBITORS AS POTENTIATORS OF BETA-LACTAM ANTIBIOTICS AGAINST METHICILLIN-RESISTANT STAPHYLOCOCCUS” (priority 2010, published 2013).
Where two headings read alike, the source gives them in different places.

Tests used:
[1] = system: MRSA COL strains bearing xylose-regulated antisense fragments corresponding to FtsZ, FtsA, or FtsW; format: cell-based, Staphylococcus aureus; details: 50 mM xylose (antisense induced) versus no xylose, FtsZ-AS
Protocol: See Forsyth et al., 2002, Mol. Microbial 43:1387-1400 for details concerning plasmid and antisense interference construction. Strains were grown overnight in Luria Bertani (LB) Miller broth at 37° C. containing 34 μg/ml chloramphenicol. Assay plates were prepared by seeding 10^7 cells/ml of each culture into 48° C. cooled LB Miller agar containing 34 μg/ml chloramphenicol. To partially repress FtsZ expression, 50 mM xylose was supplemented to plates. This antisense inducer concentration modestly impairs growth of each strain equally, reflecting a 20% inhibitory growth concentration (i.e., xylose IC20˜50 mM).
The following antibiotics were then spotted on the surface of the plates: carbapenems, imipenem (12.8 μg) and ertapenem (51.2 μg); cephalosporins, cefepime (102.4 μg), ceftazidime (102.4 μg), and ceftriaxone (102.4 μg); and the β-lactam piperacillin (combined with the […] in a 8:1 molar ratio (25.6 μg). As a control, MRSA COL was identically tested but under conditions where no xylose was supplemented into the medium (i.e., non-repressed FtsZ) as well as by identically processing the MRSA COL strain transformed with pEPSA5 but lacking an antisense fragment (data not shown). As a control for the specificity of ftsZ, ftsA, and ftsW mutant susceptibility to β-lactams, the non-β-lactam cell wall antibiotic, vancomycin (0.8 μg) was additionally spotted. Plates were then incubated at 37° C. for 16 h and photographed.
The effect FtsZ, FtsA, or FtsW imparts on MRSA susceptibility to the above antibiotics was determined by comparing their zone of inhibition between plates supplemented with antisense inducer (50 mM xylose) versus those without xylose. Differential antibiotic zones of inhibition between FtsZ, FtsA, and FtsW antisense bearing strains grown under xylose induced versus non-induced conditions reflect Fts gene-dependent restoration of MRSA COL susceptibility to β-lactams.

MRSA COL [2] = assay: Checkerboard assay (MIC, FIC index) against MRSA; format: cell-based, S. aureus
Text: (§1) The checkerboard method is the technique most frequently used to assess antimicrobial combinations in vitro. See Antibiotics in Laboratory Medicine Victor Lorian ed. 2005. The term. checkerboard refers to the pattern of microtiter wells formed by multiple dilutions of the two antimicrobials being tested in concentrations equal to, above and below their minimal inhibitory concentrations (MICs) against the organisms being tested. The checkerboard consists of columns in which each well contains the same amount of Drug A being two-fold diluted along the x-axis and rows in which each well contains the same amount of Drug B being two-fold diluted on the Y-axis. The result is that each well contains a unique combination of the two drugs being tested. Also tested is the antimicrobial activity of each agent singly.
(§2) The 96 well U-bottom polypropylene microtiter plates (Fisher Scientific, Pittsburgh, Pa.) were inoculated with 90 μl of bacterial cells (grown in Tryptic Soy Broth at 37° C. for 18 hours with rotary shaking) diluted in cation-adjusted Mueller Hinton broth to a final concentration of ˜5.5×10^5 CFU/mL.
(§3) β-lactam antibiotics were two-fold serially diluted along the Y-axis of 96-well U-bottom microtiter dishes (Fisher Scientific, Pittsburgh, Pa.) in microbiological growth media [brain heart infusion broth (BBL)]. FtsZ inhibitors were serially diluted along the X-axis of 96-well U-bottom microtiter dishes in microbiological growth media. The plates were inoculated with bacterial cells (grown in Trypticase Soy Broth at 37° C. for 18 hours with rotary shaking) to a final concentration of ˜5×10^5 CFU/mL. Test plates were incubated stationery at 37° C. for 22-24 hours.
(§4) The FIC index is most commonly used to report results of studies with antimicrobial combinations. In this method, the FIC for each drug is derived by dividing the concentration of that drug necessary to inhibit growth in a given combination by the MIC of the test organism for that drug alone. The FTC index (FICI) is then calculated by summing the separate FICs of the drugs present in that test well. Synergism is defined as an FTC index of 0.5.

MRSE CLB 26329 = assay: Checkerboard assay (MIC, FIC index) against MRSE; format: cell-based, S. epidermidis
Text: as §1, §2, §3, §4

MRSA COL [3] = assay: MRSA deep thigh infection model in neutropenic mice; format: in vivo, Staphylococcus aureus; details: for reduction of bacterial burden per thigh: 24 hr
Protocol: Female mice (20-25 g) were rendered neutropenic via intraperitoneal injection of cyclophosphamide (Mead Johnson Pharmaceuticals) four days (150 mg/kg) and one day (100 mg/kg) prior to experimental infection. Neutropenic mice were infected on Day 0 via intramuscular thigh injection of 0.1 ml containing ˜1-2×10^6 CPU Staphylococcus aureus (strain B, MRSA COL) from freshly grown culture broth. Two hours post thigh infection, mice were randomized and groups were administered increasing doses of PC190723 (50, 100, 200 mg/kg orally (p.o.), t.i.d ([…]); equivalent to 150, 300, and 600 mg/kg/24 hr) in the absence or presence of imipenem/cilastatin (10 mg/kg/50 mg/kg subcutaneously (s.c.), t.i.d. ([…]); equivalent to 30 mg/kg/24 hr and 150 mg/ kg/24 hr). Assay control groups included non-infected, vehicle-treated mice, vehicle-treated baseline infected (t=0 hr) mice, vehicle-treated 24 hr infected (t=24 hr) mice, and linezolid ((Zyvox IV solution, Bell Medical; 40 mg/kg orally (p.o.), b.i.d. ([…]) equivalent to 80 mg/kg/24 hr).
Twenty four hours post the initiation of therapy, mice were sacrificed, thighs aseptically removed, placed in 4 ml sterile phosphate buffered saline (Fisher Scientific), and homogenized using a Polytron (Brinkmann Instruments). Homogenates were serially 100-fold diluted in 9.9 ml sterile saline and plated on Mannitol Salt Agar plates. Plates were incubated at 35° C. for 48 hours and colony forming units (CFU) of bacteria remaining per thigh were determined.

[4] = FtsZ inhibitor in combination with amoxicillin, MRSA COL
[5] = FtsZ inhibitor in combination with cefazolin, MRSA COL
[6] = FtsZ inhibitor in combination with cefdinir, MRSA COL
[7] = FtsZ inhibitor in combination with cefazolin
[8] = FtsZ inhibitor in combination with cefepime, lowest achievable for PC190723

Compound: CC(=O)NC[C@H]1CN(c2ccc(N3CCOCC3)c(F)c2)C(=O)O1 [linezolid]
- change of susceptibility (zone of inhibition) on partial genetic inactivation of FtsZ, FtsA or FtsW [1]: none of the FtsZ-AS, FtsA-AS, or FtsW-AS strains demonstrated altered hypersensitivity

Compound: Zantrin Z3
- lower levels of cefazolin required to inhibit growth (MRSA COL [2]; FtsZ inhibitor at FIC≦0.25 combined with cefazolin, MRSA): 16 fold
- FICI (MRSA COL [2]; [4]): no synergy was detected
- FICI (MRSA COL [2]; [5]): 0.25
- FICI (MRSA COL [2]; [6]): 0.5
- FICI (MRSA COL [2]; FtsZ inhibitor in combination with cefepime, MRSA COL): 0.25
- FICI (MRSA COL [2]; FtsZ inhibitor in combination with ceftazidime, MRSA COL): 0.28
- minimal inhibitory concentration (MIC) (MRSA COL [2]; agent alone, MRSA): 8−16.0 μg/ml
- lower levels of cefazolin required to inhibit growth (MRSE CLB 26329; FtsZ inhibitor at FIC≦0.25 combined with cefazolin): 16 fold
- FICI (MRSE CLB 26329; FtsZ inhibitor in combination with amoxicillin): 0.28
- FICI (MRSE CLB 26329; [7]): 0.31
- FICI (MRSE CLB 26329; FtsZ inhibitor in combination with cefdinir): 0.27
- FICI (MRSE CLB 26329; [8]): 0.16
- FICI (MRSE CLB 26329; FtsZ inhibitor in combination with ceftazidime): 0.50
- minimal inhibitory concentration (MIC) (MRSE CLB 26329; agent alone): 8−16.0 μg/ml
- fraction of normal amoxicillin concentration needed to display MRSE efficacy (MRSE CLB 26329; amoxicillin paired with Z3): 1/16
- reduced cefdinir concentration to restore anti-MRSE activity (MRSE CLB 26329; cefdinir paired with Z3): 64 fold

Compound: COc1cc(Cc2cnc(N)nc2N)cc(OC)c1OC [trimethoprim]
- change of susceptibility (zone of inhibition) on partial genetic inactivation of FtsZ, FtsA or FtsW [1]: none of the FtsZ-AS, FtsA-AS, or FtsW-AS strains demonstrated altered hypersensitivity

Compound: CC[C@H]1OC(=O)[C@H](C)[C@@H](O[C@H]2C[C@@](C)(OC)[C@@H](O)[C@H](C)O2)[C@H](C)[C@@H](O[C@@H]2O[C@H](C)C[C@H](N(C)C)[C@H]2O)[C@](C)(O)C[C@@H](C)CN(C)[C@H](C)[C@@H](O)[C@]1(C)O [azithromycin]
- change of susceptibility (zone of inhibition) on partial genetic inactivation of FtsZ, FtsA or FtsW [1]: none of the FtsZ-AS, FtsA-AS, or FtsW-AS strains demonstrated altered hypersensitivity

Compound: CN[C@H](CC(C)C)C(=O)N[C@H]1C(=O)N[C@@H](CC(N)=O)C(=O)N[C@H]2C(=O)N[C@H]3C(=O)N[C@H](C(=O)N[C@H](C(=O)O)c4cc(O)cc(O)c4-c4cc3ccc4O)[C@H](O)c3ccc(c(Cl)c3)Oc3cc2cc(c3O[C@@H]2O[C@H](CO)[C@@H](O)[C@H](O)[C@H]2O[C@H]2C[C@](C)(N)[C@H](O)[C@H](C)O2)Oc2ccc(cc2Cl)[C@H]1O [vancomycin]
- change of susceptibility (zone of inhibition) on partial genetic inactivation of FtsZ, FtsA or FtsW [1]: none of the FtsZ-AS, FtsA-AS, or FtsW-AS strains demonstrated altered hypersensitivity

Compound: O=C(O)c1cn(C2CC2)c2cc(N3CCNCC3)c(F)cc2c1=O [ciprofloxacin]
- change of susceptibility (zone of inhibition) on partial genetic inactivation of FtsZ, FtsA or FtsW [1]: none of the FtsZ-AS, FtsA-AS, or FtsW-AS strains demonstrated altered hypersensitivity

Compound: C/C=C/C/C=C/CCC(=O)[C@H]1O[C@H]1C(N)=O [cerulenin]
- change of susceptibility (zone of inhibition) on partial genetic inactivation of FtsZ, FtsA or FtsW [1]: none of the FtsZ-AS, FtsA-AS, or FtsW-AS strains demonstrated altered hypersensitivity

Compound: NC(=O)c1c(F)ccc(OCc2nc3cc(Cl)cnc3s2)c1F [PC190723]
- lower levels of imipenem required to inhibit growth (MRSA COL [2]; FtsZ inhibitor at FIC≦0.25 combined with imipenem, MRSA): 16 fold
- FICI (MRSA COL [2]; [4]): 0.53
- FICI (MRSA COL [2]; [5]): 0.38
- FICI (MRSA COL [2]; [6]): 0.31
- FICI (MRSA COL [2]; FtsZ inhibitor in combination with ertapenem at its clinical breakpoint (8 μg/ml), MRSA): 0.5
- FICI (MRSA COL [2]; FtsZ inhibitor in combination with imipenem at its clinical breakpoint (4 μg/ml), MRSA): 0.31
- FIC of the FtsZ inhibitor at which synergy with β-lactams was shown (MRSA COL [2]; MRSA): 0.25
- MIC (MRSA COL [2]; Staphylococcus aureus, agent alone, MRSA, read-out: minimal inhibitory concentration (MIC)): 1 µg/mL
- MIC (MRSA COL [2]; agent alone, MRSA, FIG. 5 legend, unit not given): 1.0
- reduction of the effective inhibitory concentration of amoxicillin (MRSA COL [2]; combined with PC190723 at FIC=0.5, MRSA): ~32 fold
- FIC of the FtsZ inhibitor at which synergy with β-lactams was shown (MRSE CLB 26329): 0.25
- lower levels of imipenem required to inhibit growth (MRSE CLB 26329; FtsZ inhibitor at FIC≦0.25 combined with imipenem): 32 fold
- FICI (MRSE CLB 26329; [7]): 0.31
- FICI (MRSE CLB 26329; [8]): 0.28
- FICI (MRSE CLB 26329; FtsZ inhibitor in combination with ertapenem at its clinical breakpoint (8 μg/ml)): 0.5
- FICI (MRSE CLB 26329; FtsZ inhibitor in combination with imipenem at its clinical breakpoint (4 μg/ml)): 0.31
- MIC (MRSE CLB 26329; Staphylococcus epidermidis, agent alone, read-out: minimal inhibitory concentration (MIC)): 1 µg/mL
- MIC (MRSE CLB 26329; agent alone, FIG. 5 legend, unit not given): 1.0
- antibacterial activity compared with linezolid (MRSA COL [3]; 10 mg/kg imipenem + 200 mg/kg PC190723, linezolid 40 mg/kg p.o. b.i.d.): approaching linezolid-like antibacterial activity
- reduction of bacterial burden per thigh (MRSA COL [3]; PC190723 50 mg/kg p.o. t.i.d. + imipenem 10 mg/kg s.c. t.i.d., FIG. 7A): −0.4 Log 10 CFU
- reduction of bacterial burden per thigh (MRSA COL [3]; PC190723 100 mg/kg p.o. t.i.d. + imipenem 10 mg/kg s.c. t.i.d., FIG. 7A): −1.2 Log 10 CFU
- reduction of bacterial burden per thigh (MRSA COL [3]; PC190723 100 mg/kg p.o. t.i.d. + imipenem 10 mg/kg s.c. t.i.d., FIG. 7B): −1.9 Log 10 CFU
- reduction of bacterial burden per thigh (MRSA COL [3]; PC190723 200 mg/kg p.o. t.i.d. + imipenem 10 mg/kg s.c. t.i.d., FIG. 7A): −3.1 Log 10 CFU
- reduction of bacterial burden per thigh (MRSA COL [3]; PC190723 200 mg/kg p.o. t.i.d. + imipenem 10 mg/kg s.c. t.i.d., FIG. 7B): −2.6 Log 10 CFU
- effect on MRSA COL bacterial burden in the thighs (MRSA COL [3]; monotherapy over 24 hr, imipenem 10 mg/kg s.c. t.i.d. or PC190723 50, 100, 200 mg/kg p.o. t.i.d., neutropenic mice): did not significantly alter
